Common to all, as to format: biochemical
Assay [1] addresses human JAK1 (a.a. 837-1142) catalytic domain (Homo sapiens, UniProt P23458). The experiment in a line: In vitro JAK kinase assay (HTRF), JAK1. The settings on record: JAK enzyme assay at 1 mM ATP. The protocol:
(§1) The catalytic activity of JAK1, JAK2 or JAK3 was assayed by measuring the phosphorylation of a biotinylated peptide. The phosphorylated peptide was detected by homogenous time resolved fluorescence (HTRF). […] Reactions were carried out at room temperature for 1 hour and then stopped with 20 μL 45 mM EDTA, 300 nM SA-APC, 6 nM Eu-Py20 in assay buffer (Perkin Elmer, Boston, Mass.). Binding to the Europium labeled antibody took place for 40 minutes and HTRF signal was measured on a Fusion plate reader (Perkin Elmer, Boston, Mass.).
Background: TR-FRET usually uses a lanthanide donor and a delayed reading to cut background.

The test system of assay [2] is human JAK1 (a.a. 837-1142) catalytic domain. The experiment in a line: In vitro JAK kinase assay (HTRF), JAK1. The settings on record: ratio of IC50 values at 1 mM ATP. How it is done:
as §1

Assay [3] has as its target human JAK2 (a.a. 828-1132) catalytic domain (Homo sapiens (Human), UniProt O60674). Put plainly: In vitro JAK kinase assay (HTRF), JAK2. The following applies: JAK enzyme assay at 1 mM ATP. The protocol:
as §1

IC50 and JAK2/JAK1 data for twelve molecules are collected here from patent US9926301B2, “Bipyrazole derivatives as JAK inhibitors” (Incyte Corporation, priority 2013, dated 2018).

The term IC50 denotes the point on the concentration scale where inhibition reaches its midpoint. Low values mean higher potency, high ones lower potency.

Structures can show the parent of a compound that is named as a salt. Some results are limits rather than exact numbers.

Chain of human JAK2 (a.a. 828-1132) catalytic domain (O60674 828-1132): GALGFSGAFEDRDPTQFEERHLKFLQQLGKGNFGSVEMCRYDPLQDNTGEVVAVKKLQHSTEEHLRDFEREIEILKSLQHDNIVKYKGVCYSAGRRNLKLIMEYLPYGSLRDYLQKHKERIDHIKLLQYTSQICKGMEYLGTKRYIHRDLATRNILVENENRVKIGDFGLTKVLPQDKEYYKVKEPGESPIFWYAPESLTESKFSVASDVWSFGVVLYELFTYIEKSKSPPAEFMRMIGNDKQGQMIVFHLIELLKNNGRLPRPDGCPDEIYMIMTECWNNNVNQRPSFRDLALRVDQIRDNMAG

Turning to `Cc1[nH]ncc1-c1cnn(C2(CC#N)CN(c3cnc(C(=O)N[C@@H](C)C(F)(F)F)cn3)C2)c1` [Example 1, 5-[3-(Cyanomethyl)-3-(3′-methyl-1H,1′H-4,4′-bipyrazol-1-yl)azetidin-1-yl]-N-[(1S)-2,2,2-trifluoro-1-methylethyl]pyrazine-2-carboxamide trifluoroacetate], the concentration for half-maximal inhibition (IC50) in assay [1] is less than 300 nM; in assay [3], greater than 700 nM. Also, the JAK2/JAK1 in assay [2] is given as greater than 10.
Take `Cc1n[nH]cc1-c1cnn(C2(CC#N)CN(c3cnc(C(=O)NC(C)C)cn3)C2)c1` [Example 2, 5-[3-(Cyanomethyl)-3-(3′-methyl-1H,1′H-4,4′-bipyrazol-1-yl)azetidin-1-yl]-N-isopropylpyrazine-2-carboxamide trifluoroacetate]: the IC50 was less than 300 nM in assay [1] and 300 to 1000 nM in assay [3]. Also, in assay [2], the JAK2/JAK1 is greater than 10.
With `Cc1n[nH]cc1-c1cnn(C2(CC#N)CN(c3ccc(C(=O)NC(C)C)cc3)C2)c1` [Example 3, 4-[3-(Cyanomethyl)-3-(3′-methyl-1H,1′H-4,4′-bipyrazol-1-yl)azetidin-1-yl]-N-isopropylbenzamide trifluoroacetate], the 50% inhibitory concentration (IC50) in assay [1] is less than 300 nM; in assay [3], greater than 1000 nM. The JAK2/JAK1 in assay [2] is listed as greater than 10.
The molecule `Cc1n[nH]cc1-c1cnn(C2(CC#N)CN(c3cc(F)c(C(=O)N[C@@H](C)C(F)(F)F)cc3F)C2)c1` [Example 4, 4-[3-(Cyanomethyl)-3-(3′-methyl-1H,1′H-4,4′-bipyrazol-1-yl)azetidin-1-yl]-2,5-difluoro-N-[(1S)-2,2,2-trifluoro-1-methylethyl]benzamide trifluoroacetate] gave an IC50 in assay [1] of less than 300 nM.
With `C[C@H](NC(=O)c1cc(F)c(N2CC(CC#N)(n3cc(-c4cn[nH]c4)cn3)C2)cc1F)C(F)(F)F` [Example 5, 4-[3-(1H,1′H-4,4′-Bipyrazol-1-yl)-3-(cyanomethyl)azetidin-1-yl]-2,5-difluoro-N-[(1S)-2,2,2-trifluoro-1-methylethyl]benzamide trifluoroacetate], the values for the concentration for half-maximal inhibition (IC50) in assay [1] and in assay [3] were 300 to 1000 nM and greater than 1000 nM, respectively. Also, in assay [2], the JAK2/JAK1 was greater than 10.
As for `Cc1n[nH]cc1-c1cn(C2(CC#N)CN(c3cnc(C(=O)NC(C)C)cn3)C2)nc1C` [Example 6, 5-[3-(Cyanomethyl)-3-(3,3′-dimethyl-1H,1′H-4,4′-bipyrazol-1-yl)azetidin-1-yl]-N-isopropylpyrazine-2-carboxamide trifluoroacetate], the concentration for half-maximal inhibition (IC50) in assay [1] is less than 300 nM; in assay [3], greater than 1000 nM. Moreover, the JAK2/JAK1 in assay [2] is greater than 10.
As to `Cc1n[nH]c(C)c1-c1cnn(C2(CC#N)CN(c3cnc(C(=O)NC(C)C)cn3)C2)c1` [Example 8, 5-[3-(Cyanomethyl)-3-(3′,5′-dimethyl-1H,1′H-4,4′-bipyrazol-1-yl)azetidin-1-yl]-N-isopropylpyrazine-2-carboxamide], the IC50 in assay [1] is less than 300 nM.
As for `Cc1n[nH]c(C)c1-c1cnn(C2(CC#N)CN(c3cnc(C(=O)N[C@@H](C)C(F)(F)F)cn3)C2)c1` [Example 9, 5-[3-(Cyanomethyl)-3-(3′,5′-dimethyl-1H,1′H-4,4′-bipyrazol-1-yl)azetidin-1-yl]-N-[(1S)-2,2,2-trifluoro-1-methylethyl]pyrazine-2-carboxamide trifluoroacetate], the results for the IC50 in assay [1] and in assay [3] were less than 300 nM and 300 to 1000 nM, respectively. The JAK2/JAK1 in assay [2] is listed as greater than 10.
Consider `Cc1nn(C2(CC#N)CN(c3cnc(C(=O)NC(C)C)cn3)C2)cc1-c1cn[nH]c1` [Example 10, 5-[3-(Cyanomethyl)-3-(3-methyl-1H,1′H-4,4′-bipyrazol-1-yl)azetidin-1-yl]-N-isopropylpyrazine-2-carboxamide trifluoroacetate], for which the results for the concentration for half-maximal inhibition (IC50) in assay [1] and in assay [3] were 300 to 1000 nM and greater than 1000 nM, respectively.
In the same order, the values of `CCc1n[nH]cc1-c1cnn(C2(CC#N)CN(c3cnc(C(=O)N[C@@H](C)C(F)(F)F)cn3)C2)c1` [Example 11, 5-[3-(Cyanomethyl)-3-(3′-ethyl-1H,1′H-4,4′-bipyrazol-1-yl)azetidin-1-yl]-N-[(1S)-2,2,2-trifluoro-1-methylethyl]pyrazine-2-carboxamide trifluoroacetate] are 300 to 1000 nM and greater than 1000 nM.
The corresponding values for `C[C@H](NC(=O)c1cc(F)c(N2CC(CC#N)(n3cc(-c4c[nH]nc4CO)cn3)C2)cc1F)C(F)(F)F` [Example 12, 4-{3-(Cyanomethyl)-3-[3′-(hydroxymethyl)-1H,1′H-4,4′-bipyrazol-1-yl]azetidin-1-yl}-2,5-difluoro-N-[(1S)-2,2,2-trifluoro-1-methylethyl]benzamide trifluoroacetate] are 300 to 1000 nM and greater than 1000 nM.
`Cc1n[nH]cc1-c1cn(C2(CC#N)CN(c3cc(F)c(C(=O)N[C@@H](C)C(F)(F)F)cc3F)C2)nc1CO` [Example 13, 4-{3-(Cyanomethyl)-3-[3-(hydroxymethyl)-3′-methyl-1H,1′H-4,4′-bipyrazol-1-yl]azetidin-1-yl}-2,5-difluoro-N-[(1S)-2,2,2-trifluoro-1-methylethyl]benzamide]: the IC50 in assay [1] was less than 300 nM; in assay [3], greater than 1000 nM. Besides, in assay [2], the JAK2/JAK1 is greater than 10.
